Data on 29 compounds can be found in US10246456B2, “IRAK4 inhibiting agents” (BIOGEN MA INC., priority 2014, dated 2019).

One experiment has as its system IL-6 in A549 cells. As to the kind of experiment: Cell-based IL-6 ELISA assay in IL-1beta stimulated A549 cells. As to conditions: 2 ng/ml human IL-1beta overnight. The method, boiled down:
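A549 cells (2.5×10^4/well, DMEM/10% FBS) pretreated 30 min at 37 C with compound, 10-point serial dilution from 10 uM, then stimulated overnight with 2 ng/ml human IL-1beta. Secreted IL-6 in supernatant quantified by human IL-6 ELISA.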

The target in another experiment is IRAK4 (Homo sapiens (Human), UniProt Q9NWZ3). As to the kind of experiment: IRAK-4 AlphaScreen biochemical kinase assay. Conditions: 1 nM IRAK4, 1 mM ATP, 3.5 h at RT. The method, boiled down: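 AlphaScreen read-out: streptavidin beads bind the biotinylated peptide and protein A beads bind the anti-phosphothreonine antibody, so energy transfer reports phosphorylation of the peptide. The kinase is human IRAK-4.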
A general note: Bead proximity is the source of the signal in Alpha formats.

IRAK4, sequence (Q9NWZ3 whole entry, species assumed): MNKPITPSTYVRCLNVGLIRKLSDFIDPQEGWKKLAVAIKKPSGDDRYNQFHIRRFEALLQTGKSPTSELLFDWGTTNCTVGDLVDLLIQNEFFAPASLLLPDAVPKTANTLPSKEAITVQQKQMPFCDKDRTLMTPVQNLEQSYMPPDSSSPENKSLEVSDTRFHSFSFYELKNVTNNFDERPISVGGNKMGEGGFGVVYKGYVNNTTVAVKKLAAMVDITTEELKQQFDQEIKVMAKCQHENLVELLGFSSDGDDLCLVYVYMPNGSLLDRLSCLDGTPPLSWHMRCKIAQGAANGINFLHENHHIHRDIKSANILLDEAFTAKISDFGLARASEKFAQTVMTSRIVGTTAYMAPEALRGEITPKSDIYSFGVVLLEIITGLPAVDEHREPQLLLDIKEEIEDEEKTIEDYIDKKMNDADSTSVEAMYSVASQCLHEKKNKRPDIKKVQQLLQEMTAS

By EC50 is commonly meant the midpoint of the concentration-response curve. By IC50 is commonly meant the concentration that gives 50% inhibition. `CCC[C@H](N)c1cccc(-c2cc(C3CCN(C(C)=O)CC3)c3cnn(-c4cccc(CO)n4)c3c2)n1` [Example 515, (S)-1-(4-(6-(6-(1-aminobutyl)pyridin-2-yl)-1-(6-(hydroxymethyl)pyridin-2-yl)-1H-indazol-4-yl)piperidin-1-yl)ethanone] showed an EC50 in the experiment with IL-6 in A549 cells not above 1 µM. In addition, on IRAK4, the IC50 was less than 0.1 µM.

In the experiment on IL-6 in A549 cells, `CCC[C@H](N)c1cccc(-c2cc(CN(C)C)c3cnn(-c4cccc(CO)n4)c3c2)n1` [Example 517, (S)-(6-(6-(6-(1-aminobutyl)pyridin-2-yl)-4-((dimethylamino)methyl)-1H-indazol-1-yl)pyridin-2-yl)methanol] had an EC50 not above 1 µM. For the same compound, the concentration for half-maximal inhibition (IC50) on IRAK4 is less than 0.1 µM.

In turn, `CCC[C@H](N)c1cccc(-c2ccc3cnn(-c4cccc(CF)n4)c3c2)n1` [Example 518, (S)-1-(6-(1-(6-(fluoromethyl)pyridin-2-yl)-1H-indazol-6-yl)pyridin-2-yl)butan-1-amine] gave an EC50 with IL-6 in A549 cells not above 1 µM. The compound further returned an IC50 on IRAK4 of less than 0.1 µM.

On to `CSCC(N)c1cccc(-c2ccc3cnn(-c4cccc(CO)n4)c3c2)n1` (stereo not shown) [Example 520, (6-(6-(6-(1-amino-2-(methylthio)ethyl)pyridin-2-yl)-1H-indazol-1-yl)pyridin-2-yl)methanol], for which the EC50 in the experiment on IL-6 in A549 cells is not above 1 µM. Besides, the IC50 against IRAK4 is less than 0.1 µM.

Take `CC(C)C[C@H](N)c1cccc(-c2ccc3cnn(-c4cccc(CO)n4)c3c2)n1` [Example 521, (S)-(6-(6-(6-(1-amino-3-methylbutyl)pyridin-2-yl)-1H-indazol-1-yl)pyridin-2-yl)methanol]: the EC50 in the experiment on IL-6 in A549 cells was not above 1 µM. This compound also yielded an IC50 against IRAK4 of less than 0.1 µM.

In the experiment with IL-6 in A549 cells, `CCC[C@H](N)c1cccc(-c2cc(OCCC3CC3)c3cnn(-c4cccc(CO)n4)c3c2)n1` [Example 522, (S)-(6-(6-(6-(1-aminobutyl)pyridin-2-yl)-4-(2-cyclopropylethoxy)-1H-indazol-1-yl)pyridin-2-yl)methanol] came in with an EC50 not above 1 µM. Besides, the IC50 against IRAK4 is less than 0.1 µM.

The compound `CCC[C@H](N)c1cccc(-c2cc(OC(F)(F)F)c3cnn(-c4cccc(CO)n4)c3c2)n1` [Example 523, (S)-(6-(6-(6-(1-aminobutyl)pyridin-2-yl)-4-(trifluoromethoxy)-1H-indazol-1-yl)pyridin-2-yl)methanol] came in with a concentration for a half-maximal effect (EC50) with IL-6 in A549 cells not above 1 µM. Further, the IC50 at IRAK4 was less than 0.1 µM.

Take `C[C@H](N)c1cccc(-c2cc(C3=NCCO3)c3cnn(-c4cccc(CO)n4)c3c2)n1` [Example 524, (S)-(6-(6-(6-(1-aminoethyl)pyridin-2-yl)-4-(4,5-dihydrooxazol-2-yl)-1H-indazol-1-yl)pyridin-2-yl)methanol]: the EC50 in the experiment with IL-6 in A549 cells is not above 1 µM. The compound also came in with an IC50 on IRAK4 of less than 0.1 µM.

With `CCC[C@H](N)c1cccc(-c2cc(OC(F)F)c3cnn(-c4cncc(CO)n4)c3c2)n1` [Example 526, (S)-(6-(6-(6-(1-aminobutyl)pyridin-2-yl)-4-(difluoromethoxy)-1H-indazol-1-yl)pyrazin-2-yl)methanol], the concentration for a half-maximal effect (EC50) in the experiment on IL-6 in A549 cells was not above 1 µM. For the same compound, on IRAK4, the IC50 was less than 0.1 µM.

On to `CCC[C@H](NC)c1cccc(-c2ccc3cnn(-c4cccc(CO)n4)c3c2)n1` [Example 527, (S)-(6-(6-(6-(1-(methylamino)butyl)pyridin-2-yl)-1H-indazol-1-yl)pyridin-2-yl)methanol], for which, in the experiment with IL-6 in A549 cells, the EC50 was not above 1 µM. At IRAK4, this compound yielded a 50% inhibitory concentration (IC50) of less than 0.1 µM.

For the compound `CC1COC(c2cc(-c3cccc([C@H](C)N)n3)cc3c2cnn3-c2cccc(CO)n2)=N1` (stereo partly drawn) [Example 528, (6-(6-(6-((S)-1-aminoethyl)pyridin-2-yl)-4-(4-methyl-4,5-dihydrooxazol-2-yl)-1H-indazol-1-yl)pyridin-2-yl)methanol], the EC50 with IL-6 in A549 cells was not above 1 µM. This compound also gave an IC50 against IRAK4 of less than 0.1 µM.

In the experiment with IL-6 in A549 cells, `NC(CO)c1cccc(-c2ccc3cnn(-c4cccc(CO)n4)c3c2)n1` (stereo not shown) [Example 530, 2-amino-2-(6-(1-(6-(hydroxymethyl)pyridin-2-yl)-1H-indazol-6-yl)pyridin-2-yl)ethanol] gave an EC50 not above 1 µM. For the same compound, the IC50 against IRAK4 lay in the range of 0.1 to 1 µM.

Compound `CCC[C@H](N)c1cccc(-c2ccc3cnn(-c4nccc(C(F)(F)F)n4)c3c2)n1` [Example 531, (S)-1-(6-(1-(4-(trifluoromethyl)pyrimidin-2-yl)-1H-indazol-6-yl)pyridin-2-yl)butan-1-amine] displayed an EC50 with IL-6 in A549 cells not above 1 µM. Further, the IC50 on IRAK4 is less than 0.1 µM.

In the experiment on IL-6 in A549 cells, `CS(=O)(=O)CC(N)c1cccc(-c2ccc3cnn(-c4cccc(CO)n4)c3c2)n1` (stereo not shown) [Example 532, (6-(6-(6-(1-amino-2-(methylsulfonyl)ethyl)pyridin-2-yl)-1H-indazol-1-yl)pyridin-2-yl)methanol] registered a half-maximal effective concentration (EC50) not above 1 µM. Also, the IC50 at IRAK4 was less than 0.1 µM.

Compound `CC[C@H](N)c1cccc(-c2cc(C#N)c3cnn(-c4cccc(CO)n4)c3c2)n1` [Example 533, (S)-6-(6-(1-aminopropyl)pyridin-2-yl)-1-(6-(hydroxymethyl)pyridin-2-yl)-1H-indazole-4-carbonitrile] returned an EC50 with IL-6 in A549 cells not above 1 µM. The same compound came in with an IC50 on IRAK4 of less than 0.1 µM.

The compound `NC(CC1CC1)c1cccc(-c2ccc3cnn(-c4cccc(CO)n4)c3c2)n1` (stereo not shown) [Example 535, (6-(6-(6-(1-amino-2-cyclopropylethyl)pyridin-2-yl)-1H-indazol-1-yl)pyridin-2-yl)methanol] displayed an EC50 with IL-6 in A549 cells not above 1 µM. Moreover, on IRAK4, the IC50 is less than 0.1 µM.

`Cc1cccc(-n2ncc3c(-c4cnco4)cc(-c4cccc(C(C)N)n4)cc32)n1` (stereo not shown) [Example 536, 1-(6-(1-(6-methylpyridin-2-yl)-4-(oxazol-5-yl)-1H-indazol-6-yl)pyridin-2-yl)ethanamine] yielded an EC50 in the experiment on IL-6 in A549 cells not above 1 µM. The compound also came in with a concentration for half-maximal inhibition (IC50) against IRAK4 of less than 0.1 µM.

For the compound `C[C@H](N)c1cccc(-c2cc(C#N)c3cnn(-c4cccc(CO)n4)c3c2)n1` [Example 537, (S)-6-(6-(1-aminoethyl)pyridin-2-yl)-1-(6-(hydroxymethyl)pyridin-2-yl)-1H-indazole-4-carbonitrile], the EC50 in the experiment with IL-6 in A549 cells was not above 1 µM. On IRAK4, this compound showed an IC50 of less than 0.1 µM.

In the experiment with IL-6 in A549 cells, `NC(c1cccc(-c2ccc3cnn(-c4cccc(CO)n4)c3c2)n1)C1CC1` (stereo not shown) [Example 538, (6-(6-(6-(amino(cyclopropyl)methyl)pyridin-2-yl)-1H-indazol-1-yl)pyridin-2-yl)methanol] gave an EC50 not above 1 µM. The same compound showed an IC50 at IRAK4 of less than 0.1 µM.

In the experiment on IL-6 in A549 cells, `CC[C@H](N)c1cccc(-c2ccc3cnn(-c4cccc(C(F)F)n4)c3c2)n1` [Example 539, (S)-1-(6-(1-(6-(difluoromethyl)pyridin-2-yl)-1H-indazol-6-yl)pyridin-2-yl)propan-1-amine] gave an EC50 of 1 to 10 µM. Moreover, the IC50 against IRAK4 is less than 0.1 µM.

Compound `C[C@H](N)c1cccc(-c2cc(C(=O)NC(C)(C)CO)c3cnn(-c4cccc(CO)n4)c3c2)n1` [Example 540, (S)-6-(6-(1-aminoethyl)pyridin-2-yl)-N-(1-hydroxy-2-methylpropan-2-yl)-1-(6-(hydroxymethyl)pyridin-2-yl)-1H-indazole-4-carboxamide] had an EC50 in the experiment with IL-6 in A549 cells of 1 to 10 µM. This compound also came in with a concentration for half-maximal inhibition (IC50) against IRAK4 of 0.1 to 1 µM.

In the experiment on IL-6 in A549 cells, `C[C@H](N)c1cccc(-c2ccc3cnn(-c4nccc(C(F)F)n4)c3c2)n1` [Example 541, (S)-1-(6-(1-(4-(difluoromethyl)pyrimidin-2-yl)-1H-indazol-6-yl)pyridin-2-yl)ethanamine] returned an EC50 of 1 to 10 µM. On IRAK4, the IC50 lay within 0.1 to 1 µM.

In turn, `Cc1cccc(-n2ncc3c(-c4ncco4)cc(-c4cccc(C(C)N)n4)cc32)n1` (stereo not shown) [Example 542, 1-(6-(1-(6-methylpyridin-2-yl)-4-(oxazol-2-yl)-1H-indazol-6-yl)pyridin-2-yl)ethanamine] gave an EC50 in the experiment with IL-6 in A549 cells of 1 to 10 µM. For the same compound, the IC50 at IRAK4 was less than 0.1 µM.

For the compound `COCC(N)c1cccc(-c2ccc3cnn(-c4cccc(CO)n4)c3c2)n1` (stereo not shown) [Example 543, (6-(6-(6-(1-amino-2-methoxyethyl)pyridin-2-yl)-1H-indazol-1-yl)pyridin-2-yl)methanol], in the experiment on IL-6 in A549 cells, the EC50 fell in the range of 1 to 10 µM. Besides, at IRAK4, the IC50 is less than 0.1 µM.

`CN(C)C(=O)C(N)c1cccc(-c2ccc3cnn(-c4cccc(CO)n4)c3c2)n1` (stereo not shown) [Example 544, 2-amino-2-(6-(1-(6-(hydroxymethyl)pyridin-2-yl)-1H-indazol-6-yl)pyridin-2-yl)-N,N-dimethylacetamide]: in the experiment with IL-6 in A549 cells, the EC50 fell in the range of 1 to 10 µM. The same compound had an IC50 at IRAK4 of less than 0.1 µM.

In the experiment with IL-6 in A549 cells, `C[C@H](N)c1cccc(-c2ccc3cnn(-c4ccc(F)c(CO)n4)c3c2)n1` [Example 545, (S)-(6-(6-(6-(1-aminoethyl)pyridin-2-yl)-1H-indazol-1-yl)-3-fluoropyridin-2-yl)methanol] returned an EC50 of 1 to 10 µM. The same compound came in with an IC50 against IRAK4 of less than 0.1 µM.

Turning to `CCC[C@H](N)c1cccc(-c2ccc3cnn(-c4cncc(C(F)(F)F)n4)c3c2)n1` [Example 546, (S)-1-(6-(1-(6-(trifluoromethyl)pyrazin-2-yl)-1H-indazol-6-yl)pyridin-2-yl)butan-1-amine], the EC50 in the experiment on IL-6 in A549 cells lay within 1 to 10 µM. This compound had an IC50 against IRAK4 of less than 0.1 µM.

Consider `CC(N)CNC(=O)c1cc(-c2cccc([C@H](C)N)n2)cc2c1cnn2-c1cccc(CO)n1` (stereo partly drawn) [Example 548, 6-(6-((S)-1-aminoethyl)pyridin-2-yl)-N-(2-aminopropyl)-1-(6-(hydroxymethyl)pyridin-2-yl)-1H-indazole-4-carboxamide], for which the EC50 with IL-6 in A549 cells lay within 1 to 10 µM. Moreover, the IC50 against IRAK4 is 0.1 to 1 µM.

Consider `CCCC(O)c1cccc(-c2ccc3cnn(-c4cccc(CO)n4)c3c2)n1` (stereo not shown) [Example 550, 1-(6-(1-(6-(hydroxymethyl)pyridin-2-yl)-1H-indazol-6-yl)pyridin-2-yl)butan-1-ol], for which the EC50 with IL-6 in A549 cells is 1 to 10 µM. At IRAK4, this compound had a 50% inhibitory concentration (IC50) of 1 to 10 µM.
